# Values of other authors in US20220008485A1, “Wound Honey” (priority 2020, published 2022).
# Like-named read-outs stand apart in the source and are kept apart here.
# Legend:
# Pseudomonas aeruginosa = conditions: for MBC acid: acid alone; for MBC combination Acid/H2O2: acid part: acid combined with H2O2, in Bovine albumin + yeast extract 1%; for MBC combination Acid/H2O2: H2O2 part: in Bovine albumin + yeast extract 1%
# spores of B. cereus = conditions: 0.1% TC, HP at 600 MPA, 7° Celsius, infant formula
# [1] = H2O2 combined with Formic acid, in Bovine albumin + yeast extract 1%
# [2] = in combination with silver nanoparticles
# [3] = acid combined with H2O2, in Bovine albumin + yeast extract 1%
compound,measurement,setting,value
"O=C(O)CCC(=O)O [Succinic, succinic acid]",MBC acid,Pseudomonas aeruginosa,0.078%
same,MBC combination Acid/H2O2: acid part,Pseudomonas aeruginosa,0.078%
"CCC(=O)O [Propionic, propionic acid]",MBC acid,Pseudomonas aeruginosa,0.5%
same,MBC combination Acid/H2O2: acid part,Pseudomonas aeruginosa,0.50%
OO [hydrogen peroxide],MBC combination Acid/H2O2: H2O2 part,Pseudomonas aeruginosa; H2O2 combined with Acetic acid,0.39%
same,MBC combination Acid/H2O2: H2O2 part,Pseudomonas aeruginosa; H2O2 combined with Formic acid,0.39%
same,MBC combination Acid/H2O2: H2O2 part,Pseudomonas aeruginosa; H2O2 combined with Propionic acid,0.19%
same,MBC combination Acid/H2O2: H2O2 part,Pseudomonas aeruginosa; H2O2 combined with Succinic acid,0.78%
same,MBC hydrogen peroxide,Pseudomonas aeruginosa; hydrogen peroxide alone,1.56%
same,MBC combination Acid/H2O2: H2O2 part,Enterococcus hirae; [1],3.12%
same,MBC hydrogen peroxide,Enterococcus hirae; hydrogen peroxide alone,12.5%
same,MBC combination Acid/H2O2: H2O2 part,"Listeria monocytogenes; H2O2 combined with Formic (printed Fonnic) acid, in Bovine albumin + yeast extract 1%",0.78%
same,MBC hydrogen peroxide,Listeria monocytogenes; hydrogen peroxide alone,6.25%
same,MBC combination Acid/H2O2: H2O2 part,Staphylococcus aureus; [1],1.56%
same,MBC hydrogen peroxide,Staphylococcus aureus; hydrogen peroxide alone,3.12%
"O=CC=Cc1ccccc1 [Cinnamaldehyde, cinnamaldehyde]","Minimal Inhibitory Concentration, Cinnamaldehyde",Bacillus cereus; alone,0.328 mg/mL
same,"Minimal Inhibitory Concentration, Synergy Cinnamaldehyde",Bacillus cereus; [2],0.082 mg/mL
same,"Minimal Inhibitory Concentration, Cinnamaldehyde",Clostridium perfringens; alone,0.065 mg/mL
same,"Minimal Inhibitory Concentration, Synergy Cinnamaldehyde",Clostridium perfringens; [2],0.016 mg/mL
"CC(=O)O [Acetic, acetic acid]",MBC acid,Pseudomonas aeruginosa,0.625%
same,MBC combination Acid/H2O2: acid part,Pseudomonas aeruginosa,0.625%
"O=CO [Formic, formic acid]",MBC acid,Pseudomonas aeruginosa,0.025%
same,MBC combination Acid/H2O2: acid part,Pseudomonas aeruginosa,0.025%
same,MBC acid,Enterococcus hirae; acid alone,5%
same,MBC combination Acid/H2O2: acid part,Enterococcus hirae; [3],0.625%
same,MBC acid,Listeria monocytogenes; acid alone,1.56%
same,MBC combination Acid/H2O2: acid part,Listeria monocytogenes; [3],0.625%
same,MBC acid,Staphylococcus aureus; acid alone,1.25%
same,MBC combination Acid/H2O2: acid part,Staphylococcus aureus; [3],0.312%
"O=C/C=C/c1ccccc1 [TC, trans-cinnamaldehyde]",Mean logarithmic decrease in spores of B. cereus,spores of B. cereus; Week 1,1.5
same,Mean logarithmic decrease in spores of B. cereus,spores of B. cereus; Week 2,2
same,Mean logarithmic decrease in spores of B. cereus,spores of B. cereus; Week 3,3
same,Mean logarithmic decrease in spores of B. cereus,spores of B. cereus; Week 4,2.25
same,Mean logarithmic decrease in spores of B. cereus,spores of B. cereus; Week 5,3
same,Mean logarithmic decrease in spores of B. cereus,spores of B. cereus; Week 6,1.5
